According to patent US20160230142A1, “CORNEAL STROMAL KERATOCYTE CULTURE” (SINGAPORE HEALTH SERVIES PTE LTD., priority 2013, published 2016):

How the values were obtained:
Format in all cases: cell-based
[1] = test system: primary human CSKs; test: F-actin stress fiber pattern by phalloidin staining (stress index)
Procedure: Cornea specimens were washed in sterile PBS (0.01 M, Invitrogen, Carlsbad, Calif., US) added with 3% antibiotics-antimycotes (penicillin S, streptomysin sulfate and amphoptericin B, Invitrogen). Central corneal buttons (1 mm from peripheral limbus) were trephined and treated with dispase II (20 mg/ml, Roche, Basal, Switzerland) to remove corneal epithelium and endothelium. The stroma tissue was trimmed into small fragments (˜1 mm^3 in size) and digested with collagenase I (0.1%, Worthington, Lakewood, N.J., US) in keratocyte basal medium (KBM) for 8 to 10 hours at 37° C. After repeat pipetting, the cell suspension was passed through cell strainer (40 μm pore size), followed by centrifugation at 400 g for 5 min at room temperature. […]
The samples were fixed with freshly prepared 2% neutral buffered paraformaldehyde (Sigma), quenched with ice-cold 50 mM ammonium chloride (Sigma) and permeabilized with 0.15% saponin (Sigma). […] Results were visualized under fluorescence microscopy (Carl Zeiss) or confocal laser-scanning microscopy (LSM 510 Meta, Carl Zeiss).
[…] The percentage of stress cells in triplicate experiments was expressed as mean±SD. Results were compared and analyzed by paired Student's t-test and Dunn-Bonferroni correction.

[2] = test system: Smad2/3; test: TGFβ-mediated nuclear localization of Smad2/3 (immunofluorescence); conditions: TGFβ1 10 ng/ml, human CSKs at passage 5
Procedure: The samples were fixed with freshly prepared 2% neutral buffered paraformaldehyde (Sigma), quenched with ice-cold 50 mM ammonium chloride (Sigma) and permeabilized with 0.15% saponin (Sigma). After blocking with 2% bovine serum albumin (Sigma) and 2% normal goat serum (Invitrogen), the cells were incubated with primary antibody recognizing aldehyde dehydrogenase 1A1 (ALDH1A1, Proteintech), lumican (LUM, Bioss), transketolase (Tkt, Cell Signalling), αSMA (Sigma) or Alexa Fluor 543-conjugated phalloidin (Sigma), respectively. The secondary antibodies were either Alexa488 or Rhodamine Red-X-conjugated (Jackson ImmunoRes Lab, West Grove, Pa.). All nuclei were counterstained with DAPI (4′,6-diamidino-2-phenylindole, Santa Cruz) and samples were mounted in FluorShield (Sigma). Results were visualized under fluorescence microscopy (Carl Zeiss) or confocal laser-scanning microscopy (LSM 510 Meta, Carl Zeiss).
To examine if LAE (ASE) was effective in suppressing CSK transition to fibroblasts, TGFβ-mediated nuclear localization of Smad2/3 was studied.

[3] = test system: human CSKs (at passage 6); test: Collagen gel contraction assay; conditions: TGFβ1 (20 ng/ml) added to KBM with 2% FBS, 48 hours
Procedure: Bovine type I collagen gels were made to a final concentration of 2.5 mg/ml as liquid with KBM and supplements. It was mixed with cells at a density of 10^5 cells/ml and 0.5 ml mixture was added to each well of 24-multiwell plate coated with 1% BSA. It was allowed to gelation at 37° C. for 1 hour before addition of appropriate medium. After 24 hours, the gel was released from the side of culture well with a sterile needle to initiate contraction. The collagen gel size change was recorded at 48-hour interval and measured using Image J software (NIH). The percentages of collagen gel size to the size of culture well were compared among different treatments. Experiment was done in quadruplicate and the percentages of gel contraction were represented as median and interquartile range. Intergroup significance was calculated by Mann-Whitney U test.

C[C@@H](N)[C@H]1CC[C@H](C(=O)Nc2ccncc2)CC1 [Y27632, (1R,4r)-4-((R)-1-aminoethyl)-N-(pyridin-4-yl)cyclohexanecarboxamide]
stress index (percentage of cells with stress fibre pattern) ([1]; Y27632 (10 μM) added to KBM+0.5% FBS, 5 random fields): 7.6±2.9%

IGF1: insulin-like growth factor 1 (10 ng/ml, Invitrogen)
cells with stress F-actin fibre ([1]; IGF1-treated cells with 0.5% FBS): 29.3±7.3%

TGFβ1: recombinant human TGFβ1
cells with nuclear Smad2/3 ([2]; 3 days): 43.8%
cells with nuclear Smad2/3 ([2]; incubated for 3 hours): 22%
gel contraction (median) [3]: 91.7%
